Source: article PMC9492458, “Development and structure–activity relationships of tanshinones as selective 11β-hydroxysteroid dehydrogenase 1 inhibitors” (Natural Products and Bioprospecting, 2022)
Like-named read-outs stand apart in the source and are kept apart here.

Assays:
[1] = biological target: mouse 11β-HSD1 (Mus musculus, UniProt P50172); test: scintillation proximity assay (SPA), microsomes of HEK-293 cells transfected with mouse 11β-HSD1; details: for Mouse SI (selectivity index): SI = IC50(HSD2)/IC50(HSD1); for inhibition at 1 µM: read-out: Inhibitory ratio m-HSD1, at 1.0 μM, averages of three determinations
Protocol: (§1) With diverse tanshinones in hand, inhibition of human and mouse 11β-HSD1 enzymatic potency was measured by scintillation proximity assay (SPA) using microsomes containing 11β-HSD1 [46, 47]. Results are reported as the average of two or three independent experiments at each concentration.
(§2) The SPA was used to screen for inhibitors of 11β-HSDs [48], with the microsome fractions prepared from the HEK-293 cells stably transfected with either human or mouse 11β-HSD1 or 11β-HSD2 as the enzyme source. […] Reactions were initiated by the addition of 11β-HSD1 or 11β-HSD2, enzyme. […] The plates were incubated under plastic film on an orbital shaker for 120 min at room temperature before counting. The amount of [^3H]-cortisol generated in 11β-HSD1 enzyme reaction or remaining from the 11β-HSD2 enzyme reaction was captured by the beads and determined in a microplate liquid scintillation counter. The % inhibition was calculated relative to a non-inhibited control. Data were obtained from two or three independent experiments. IC50 values were calculated from concentration–response curves by a non-linear regression analysis using Prism Version 6.

[2] = biological target: T1, mouse 11β-HSD2 (Mus musculus, UniProt P51661); test: scintillation proximity assay (SPA), microsomes of HEK-293 cells transfected with mouse 11β-HSD2
T1 sequence (P51661 1-386): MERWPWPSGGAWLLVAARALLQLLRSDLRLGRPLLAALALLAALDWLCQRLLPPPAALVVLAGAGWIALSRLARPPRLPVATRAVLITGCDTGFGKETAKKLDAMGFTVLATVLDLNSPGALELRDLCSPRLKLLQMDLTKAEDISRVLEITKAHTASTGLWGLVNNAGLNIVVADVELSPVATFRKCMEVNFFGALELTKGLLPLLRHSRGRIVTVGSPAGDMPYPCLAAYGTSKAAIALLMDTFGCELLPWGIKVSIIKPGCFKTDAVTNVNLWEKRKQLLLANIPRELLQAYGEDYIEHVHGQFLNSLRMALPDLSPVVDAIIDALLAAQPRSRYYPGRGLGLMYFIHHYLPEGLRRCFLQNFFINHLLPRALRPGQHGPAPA
Protocol: as §1, §2

[3] = biological target: human 11β-HSD1 (Homo sapiens, UniProt P28845); test: scintillation proximity assay (SPA), microsomes of HEK-293 cells transfected with human 11β-HSD1; details: for Human SI (selectivity index): SI = IC50(HSD2)/IC50(HSD1); for inhibition at 1 µM: read-out: Inhibitory ratio h-HSD1, at 1.0 μM, averages of three determinations
Protocol: as §1, §2

[4] = biological target: T2, human 11β-HSD2 (Homo sapiens, UniProt P80365); test: scintillation proximity assay (SPA), microsomes of HEK-293 cells transfected with human 11β-HSD2
T2 sequence (P80365 1-405): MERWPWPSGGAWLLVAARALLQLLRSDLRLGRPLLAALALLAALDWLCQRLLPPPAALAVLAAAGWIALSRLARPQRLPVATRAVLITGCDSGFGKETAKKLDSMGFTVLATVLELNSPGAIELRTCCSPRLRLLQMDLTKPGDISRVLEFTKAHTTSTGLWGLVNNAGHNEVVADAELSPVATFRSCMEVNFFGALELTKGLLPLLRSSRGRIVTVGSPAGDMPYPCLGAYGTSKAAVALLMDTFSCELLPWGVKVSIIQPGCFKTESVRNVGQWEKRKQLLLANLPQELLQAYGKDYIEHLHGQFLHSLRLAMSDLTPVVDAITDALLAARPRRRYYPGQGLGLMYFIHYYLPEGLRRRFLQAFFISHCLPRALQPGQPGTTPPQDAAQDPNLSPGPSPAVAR
Protocol: as §1, §2

[5] = biological target: T3, 11β-HSD1 in liver (Mus musculus, UniProt P50172); test: Measurement of 11β-HSD1 activity in liver of ob/ob mice; assay type: in vivo; details: single oral dose 300 mg/kg
T3 construct: from tissue
Protocol: After single oral administration of 1, 17 or 30 at dose of 300 mg/kg to ob/ob mice, the enzymatic activity of 11β-HSD1 in liver was measured.
B6.V-Lepob/Lepob mice (Jackson Laboratory, Bar Harbor, ME, USA) were bred at the Shanghai Institute of Materia Medica, Chinese Academy of Sciences. All mice were housed in a specific, pathogen-free class laboratory and were maintained at a controlled room temperature (22–24 °C) under a 12 h light–dark cycle with free access to water and food. The animal experiments were conducted in accordance with the guides by the Institutional Animal Care and Utilization Committee (IACUC) of Shanghai Institute of Materia Medica (SIMM), Chinese Academy of Sciences (CAS). The protocol was approved by the IACUC, SIMM, CAS with accreditation number of 2017-08-LY-67. All animal experiment complied with the ARRIVE guidelines for the care and use of laboratory animals.
Ob/ob mice (10 weeks’ old) were given a single dose of 1, 17, 30 (300 mg/kg) or vehicle (0.5% carboxymethyl cellulose, CMC), p.o. After 4 h and 8 h, animals were euthanized with an i.p injection of sodium pentobarbital (60 mg/kg) and the livers were isolated and stored as described above. The liver tissue was homogenized (1 mg/mL) in cold homogenization buffer, and […] of liver homogenates was used to analyze the 11β-HSD1 activity by SPA, as previously described.

[6] = biological target: T4, 11β-HSD1 in 3T3-L1 adipocytes (Mus musculus, UniProt P50172); test: 11β-HSD1 activity assay in 3T3-L1 adipocytes; assay type: cell-based; details: for IC50: 1 h incubation, averages of three determinations, read-out: IC50, cellular assay on 3T3-L1 adipocyte against 11β-HSD1; for Emax: inhibition relative to MK544 10 μM, read-out: Max effect
T4 construct: endogenous in cells; host or cells: 3T3-L1 adipocytes
Protocol: 11β-HSD1 enzyme inhibition in adipose tissue is believed to be important for achieving efficacy in vivo [11, 12]. Derivatives with potent enzymatic potency and excellent selectivity profiles (13, 14, 17, 28a, 28b and 30) were also evaluated their 11β-HSD1 inhibition in 3T3-L1 adipocyte.
The reductase activity of 11β-HSD1 in intact 3T3-L1 adipocytes was determined by measuring the rate of conversion of cortisone to cortisol. To explore the effect of compounds on 11β-HSD1 reductase activity, 3T3-L1 adipocytes were incubated for 1 h at 37 °C in serum-free DMEM containing 6.25 nmol/L [1,2-(N)^3H]-cortisone and different concentrations of compounds, according to experimental design. 0.1% DMSO was set as the vehicle control and MK544 was set as the positive control. At the end of the incubation, 80 μL of medium was pipetted into a transparent bottom 96-well plate, and 35 μL of SuperBlock Blocking Buffer containing 10 g/L of protein A-coated yttrium silicate beads and 3 mg/L of anti-cortisol antibodies was added. The mixtures were shaken in the dark for 2 h and then used for liquid scintillation readings. The inhibition effect was calculated by the following equation: Inhibition%=Data(compound)-Data(DMSO Vehicle)/Data(MK54410μM)-Data(DMSO Vehicle)×100%.

Chain of human 11β-HSD1 (P28845 whole entry): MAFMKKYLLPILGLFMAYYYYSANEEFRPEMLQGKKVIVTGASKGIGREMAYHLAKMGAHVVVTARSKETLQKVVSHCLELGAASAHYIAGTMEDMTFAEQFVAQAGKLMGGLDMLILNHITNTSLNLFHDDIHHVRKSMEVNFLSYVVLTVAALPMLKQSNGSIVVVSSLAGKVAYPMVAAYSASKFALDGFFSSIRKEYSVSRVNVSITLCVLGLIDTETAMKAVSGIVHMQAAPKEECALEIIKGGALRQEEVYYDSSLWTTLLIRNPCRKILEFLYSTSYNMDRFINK
T4 sequence (P50172 whole entry): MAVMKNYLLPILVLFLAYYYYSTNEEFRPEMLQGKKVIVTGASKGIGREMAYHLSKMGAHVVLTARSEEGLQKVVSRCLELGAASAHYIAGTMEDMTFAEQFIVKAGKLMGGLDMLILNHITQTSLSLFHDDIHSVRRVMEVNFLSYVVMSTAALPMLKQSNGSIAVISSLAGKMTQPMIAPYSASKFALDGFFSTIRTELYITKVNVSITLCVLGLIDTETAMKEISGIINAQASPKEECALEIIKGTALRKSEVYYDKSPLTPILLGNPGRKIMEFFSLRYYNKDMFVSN
Chain of mouse 11β-HSD1 (P50172 whole entry): as above
T3 sequence (P50172 whole entry): as above

Cc1coc2c1C(=O)C(=O)c1c-2ccc2c1CCCC2(C)C [Compound 1, tanshinone IIA]
IC50 [1]: 0.0322 ± 0.0025 µM | Mouse SI (selectivity index) ([1]; Table 1): > 31,250 | Mouse SI (selectivity index) ([1]; Table 3): > 31,055.9 | inhibition at 1 µM [1]: 89.6 ± 0.6% | IC50 [2]: > 1000 µM | IC50 ([2]; read-out: Mouse (IC50) 11β-HSD2, Table 3, averages of two determinations): > 1000 µM | IC50 [3]: 0.0353 ± 0.0154 µM | Human SI (selectivity index) ([3]; Table 1): 3838 | inhibition at 1 µM [3]: 76.6 ± 1.3% | IC50 [4]: 135 ± 72.5 µM | decrease in 11β-HSD1 activity in liver ([5]; 4 h after treatment): 32.9% | decrease in 11β-HSD1 activity in liver ([5]; 8 h after treatment): 48.4% | IC50 [6]: 2 ± 0.6 µM | Emax [6]: 104 ± 1%

Cc1coc2c1C(=O)C(=O)c1c-2ccc2c1C=CCC2(C)C [Compound 13]
IC50 [1]: 0.0593 ± 0.0095 µM | Mouse SI (selectivity index) ([1]; Table 3): > 1689.2 | inhibition at 1 µM [1]: 92.3 ± 2.7% | IC50 [2]: > 100 µM | IC50 [3]: 0.27 µM | Human SI (selectivity index) ([3]; Table 3): 9.9 | inhibition at 1 µM [3]: 67.4 ± 1.6% | IC50 [4]: 2.7 ± 1 µM | IC50 [6]: 7.9 µM | Emax [6]: 102 ± 0.3%

Cc1coc2c1C(=O)C(=O)c1c-2ccc2c1C=CC(=O)C2(C)C [Compound 14]
IC50 [1]: 0.0539 ± 0.0093 µM | Mouse SI (selectivity index) ([1]; Table 3): > 1855.3 | inhibition at 1 µM [1]: 85.9 ± 1.6% | IC50 [2]: > 100 µM | IC50 [3]: 0.3 µM | Human SI (selectivity index) ([3]; Table 3): 19.6 | inhibition at 1 µM [3]: 57.2 ± 2% | IC50 [4]: 5.9 ± 3.4 µM | IC50 [6]: > 4 µM | Emax [6]: 104 ± 1.2%

Cc1coc2c1C(=O)C(=O)c1c-2ccc2c1CCC(=O)C2(C)C [Compound 17]
IC50 [1]: 0.0069 ± 0.0007 µM | Mouse SI (selectivity index) ([1]; Table 3): > 14,492.7 | inhibition at 1 µM [1]: 84.6 ± 1.4% | IC50 [2]: > 100 µM | IC50 [3]: 0.21 µM | Human SI (selectivity index) ([3]; Table 3): 28.0 | inhibition at 1 µM [3]: 63.5 ± 3.2% | IC50 [4]: 5.9 ± 2.3 µM | decrease in 11β-HSD1 activity in liver ([5]; 8 h after treatment): 38.5% | IC50 [6]: 1.4 ± 0.1 µM | Emax [6]: 90 ± 0.4%

Cc1c(COCO)oc2c1C(=O)C(=O)c1c-2ccc2c1CCCC2(C)C [Compound 28a]
IC50 [1]: 0.0793 ± 0.0162 µM | Mouse SI (selectivity index) ([1]; Table 3): > 1261.0 | inhibition at 1 µM [1]: 79.2 ± 2.2% | IC50 [2]: > 100 µM | IC50 [3]: 0.149 ± 0.0339 µM | Human SI (selectivity index) ([3]; Table 3): 27.5 | inhibition at 1 µM [3]: 74.3 ± 2.1% | IC50 [4]: 4.1 ± 0.7 µM | IC50 [6]: 3.9 ± 0.1 µM | Emax [6]: 104 ± 0.9%

Cc1c(CO)oc2c1C(=O)C(=O)c1c-2ccc2c1CCCC2(C)C [Compound 28b]
IC50 [1]: 0.0702 ± 0.0134 µM | Mouse SI (selectivity index) ([1]; Table 3): > 1426.5 | inhibition at 1 µM [1]: 88.5 ± 0.1% | IC50 [2]: > 100 µM | IC50 [3]: 0.0998 ± 0.0105 µM | Human SI (selectivity index) ([3]; Table 3): 62.9 | inhibition at 1 µM [3]: 75.3 ± 0.8% | IC50 [4]: 6.3 ± 0.9 µM | IC50 [6]: 3.1 ± 0.6 µM | Emax [6]: 100 ± 4%

CC1(C)CCCc2c1ccc1c2C(=O)C(=O)c2c(CO)coc2-1 [Compound 30]
IC50 [1]: 0.0222 ± 0.0006 µM | Mouse SI (selectivity index) ([1]; Table 3): > 4510.6 | inhibition at 1 µM [1]: 98.6 ± 0.7% | IC50 [2]: > 100 µM | IC50 [3]: 0.0578 ± 0.013 µM | inhibition at 1 µM [3]: 82 ± 2.7% | decrease in 11β-HSD1 activity in liver ([5]; 8 h after treatment): 41.2% | IC50 [6]: 4.4 ± 0.1 µM | Emax [6]: 105%
